Source: publication PMC10778626, “Efficacy of Novel Quaternary Ammonium and Phosphonium Salts Differing in Cation Type and Alkyl Chain Length against Antibiotic-Resistant Staphylococcus aureus” (International Journal of Molecular Sciences, 2023)

Legend:
[1] = test system: S. aureus XU212, SA1199B, and RN4220; assay: MIC/MBC by broth microdilution, ranges over the antibiotic-resistant strains; assay type: cell-based, Staphylococcus aureus
Description: (§1) S. aureus CECT 976, obtained from the Spanish Type Culture Collection, was used as the standard susceptibility testing control strain. This strain has been previously employed in diverse studies to validate the antimicrobial effects of novel molecules. Additional antibiotic-resistant strains, S. aureus XU212, SA1199B, and RN4220, generously provided by S. Gibbons (University College London, London, UK) were tested. […] The SA1199B strain is characterized by its resistance to fluoroquinolones due to the overexpression of the NorA efflux pump and its ciprofloxacin resistance.
The minimum inhibitory concentration (MIC) and minimum bactericidal concentration (MBC) values of all QHSs were determined by the broth microdilution method, according to the approved M7-A7 (aerobes) standards of the Clinical and Laboratory Standards Institute (CLSI) guidelines. […] Absorbance measurements were performed at the beginning (t = 0 h) and end (t = 24 h) of the incubation period using a microtiter plate absorbance reader (BMG LABTECH FLUOstar Omega). […]
Plates were incubated at 37 °C for 24 h, and growth was visually inspected. The MBC was determined as the lowest concentration of compound in which the total inhibition of growth on solid medium was observed (no colony forming units (CFUs) were detected). […]

[2] = test system: S. aureus SA1199B; assay: MIC/MBC by broth microdilution, S. aureus SA1199B; assay type: cell-based; details: Staphylococcus aureus
Description: as §1
(§2) The minimum inhibitory concentration (MIC) and minimum bactericidal concentration (MBC) values of all QHSs were determined by the broth microdilution method, according to the approved M7-A7 (aerobes) standards of the Clinical and Laboratory Standards Institute (CLSI) guidelines. Overnight cell cultures of S. aureus, in the exponential phase of growth, were adjusted to an optical density (OD) of 0.132 ± 0.02 (λ = 600 nm). Then, a volume of 180 µL of the cell suspension was added to sterile, flat, clear-bottomed polystyrene (PS) 96-well microtiter plates (VWR—Radnor, PA, USA), already containing 20 µL of each QHS under study at concentrations ranging from 0.0625 to 64 µg/mL. In the end, the volume of each compound never exceeded 10% (v/v) of the well volume. Microtiter plates were then incubated for 24 h at 37 °C under agitation (150 rpm; INCU-Line IL 150R incubator). Absorbance measurements were performed at the beginning (t = 0 h) and end (t = 24 h) of the incubation period using a microtiter plate absorbance reader (BMG LABTECH FLUOstar Omega). Bacterial suspensions with DMSO and without QHSs were used as negative controls. […] All tests were performed with six replicates and a minimum of three independent repeats.
(§3) Plates were incubated at 37 °C for 24 h, and growth was visually inspected. The MBC was determined as the lowest concentration of compound in which the total inhibition of growth on solid medium was observed (no colony forming units (CFUs) were detected). All tests were performed in triplicate, and with a minimum of three independent repeats.

[3] = test system: S. aureus XU212; assay: MIC/MBC by broth microdilution, S. aureus XU212; assay type: cell-based; details: Staphylococcus aureus
Description: as §1, §2, §3

[4] = test system: HepG2 cells; assay: Cytotoxicity by neutral red (NR) uptake; assay type: cell-based, human; details: for NR uptake (lysosomal activity), % of control: HepG2, 24 h; for safety profile (MIC correlated with in vitro human cellular data): concentrations equal to or below 2 µg/mL
Description: The evaluation of the cytotoxicity effects of QHSs was performed using hepatocellular carcinoma (HepG2) cells. […] The cells used for all experiments were taken between the 9th and 13th passages, to avoid phenotypic changes.
The cytotoxicity profile of the compounds under study was evaluated in HepG2 cells (2.5 × 10^5 cells/mL) seeded in 96-well plates. […] Control experiments were performed for viability endpoints by adding the vehicle (medium with 0.1% DMSO) instead of the compound solution.
In the NR uptake assay, following a 24 h incubation period with the test compounds, the cell culture medium was aspirated, and fresh medium containing 150 µL of the dye (at a concentration of […]) was added to the cells. […] After incubation, the cell culture medium was discarded, and a mixture of absolute ethanol and distilled water (1:1) containing 5% acetic acid was added to extract the dye accumulated within the lysosomes of viable cells. The absorbance at 540 nm was measured using a microplate reader (Synergy HTX Multi-Mode Reader—BioTek, Winooski, VT, USA).
For all assays, results are expressed as a percentage of the control (nontreated cells), taken as 100%.

[5] = test system: S. aureus CECT 976; assay: MIC/MBC by broth microdilution, S. aureus CECT 976; assay type: cell-based; details: Staphylococcus aureus, CECT976, S. aureus CECT 976, broth microdilution; for MIC: 24 h, 37 °C, read-out: MIC; for MBC: plated on PCA, read-out: MBC
Description: as §2
Plates were incubated at 37 °C for 24 h, and growth was visually inspected. […] All tests were performed in triplicate, and with a minimum of three independent repeats.

[6] = Chromatographic hydrophobicity index (CHI) by UHPLC; assay type: physicochemical; details: for CHI: LC/UV at pH 2.6, calculated from retention time with the calibration line; for chromatographic logP: back-calculated from CHI at pH 2.6: CHI LogP = 0.047 × CHI + 0.36 × HBC − 1.10
Description: The chromatographic hydrophobicity index (CHI) values were determined using the retention times (tR) of the samples under study and of a mixture of standard compounds on a UHPLC NEXERA SERIES LC-40 with a Luna C18 (2) column of 150 × 4.6 mm, 5 μm (Phenomenex, Torrance, CA, USA). Stock solutions of the test compounds (10 mM) were prepared in dimethyl sulfoxide (DMSO, 99.9%; Carlo Erba) and diluted in acetonitrile/water (1:1) to obtain a final concentration of 500 μM. The mobile phase A was 1.0% (v/v) aqueous acetic acid solution (pH = 2.6), and the mobile phase B was acetonitrile. The following gradient programme was applied: 1–7 min 0–100% B, 7–17 min 100% B, 17–19 min 100–0% B, 1 mL/min flow; rt, injection volume 40 μL.
A calibration line was obtained using a mixture of the following compounds: benzimidazole, theophylline, paracetamol, caffeine, colchicine, carbamazepine, indole, propiophenone, butyrophenone, valerophenone, and heptanophenone (Table S1 and Figure S50, Supplementary Materials). The experimental CHI values of the compounds tested at pH 2.6 were then converted to the logarithm of octanol/water partition coefficient (CHI LogP) values using Equation (1). CHI LogP = 0.047 × CHI + 0.36 × HBC − 1.10 (1) where HBC is the hydrogen bond donor count.

SMILES | MBC values, range over strains [1] | MBC [2] | MIC [2] | MBC [3] | MIC [3] | NR uptake (lysosomal activity), % of control ([4]; 1 µg/mL) | NR uptake (lysosomal activity), % of control ([4]; 2 µg/mL) | NR uptake (lysosomal activity), % of control ([4]; 16 µg/mL) | NR uptake (lysosomal activity), % of control ([4]; 32 µg/mL) | MIC [5] | MBC [5] | CHI [6] | chromatographic logP [6] | safety profile (MIC correlated with in vitro human cellular data) [4]
CCCCCCCCCCCCCC[P+](c1ccccc1)(c1ccccc1)c1ccccc1 [Compound 1e, Triphenyl(tetradecyl)phosphonium bromide] | 2 µg/mL | 2 µg/mL | 1 µg/mL | 2 µg/mL | 2 µg/mL | 53.86 ± 4.854% (****) | 72.84 ± 7.906% (****) | 12.29 ± 3.775% (****) | 13.78 ± 2.666% (****) | 1 µg/mL | 16 µg/mL | 105.0 | 3.84 | –
CCCCCCCCCCCCCC[n+]1ccn(C)c1.[Br-] [Compound 2e, 1-Methyl-3-tetradecyl-1H-imidazol-3-ium bromide] | – | 32 µg/mL | 8 µg/mL | 64 µg/mL | 32 µg/mL | – | 86.71 ± 4.103% (****) | 12.85 ± 2.005% (****) | 13.64 ± 2.776% (****) | 1 µg/mL | 8 µg/mL | 81.36 | 2.72 | favourable safety profile
CCCCCCCCCCCCCC[n+]1ccc2ccccc2c1.[Br-] [Compound 3e, 2-Tetradecylisoquinolin-2-ium bromide] | – | 8 µg/mL | 2 µg/mL | 8 µg/mL | 4 µg/mL | – | 79.86 ± 9.893% (****) | 12.68 ± 2.385% (****) | 12.77 ± 1.368% (****) | 2 µg/mL | 8 µg/mL | 87.98 | 3.04 | –
CCCCCCCCCCCCCC[n+]1ccc(C)cc1.[Br-] [Compound 4e, 4-Methyl-1-tetradecylpyridin-1-ium bromide] | – | 32 µg/mL | 8 µg/mL | 32 µg/mL | 32 µg/mL | – | – | 14.45 ± 2.437% (****) | 21.52 ± 19.06% (****) | 2 µg/mL | 8 µg/mL | 82.90 | 2.8 | favourable safety profile
CCCCCCCCCCCCCC[n+]1cccc2ccccc21.[Br-] [Compound 5e, 1-Tetradecylquinolin-1-ium bromide] | 8 µg/mL | 8 µg/mL | 4 µg/mL | 8 µg/mL | 8 µg/mL | – | 88.20 ± 3.101% (****) | 12.06 ± 2.988% (****) | 14.38 ± 4.045% (****) | 2 µg/mL | 8 µg/mL | 88.00 | 3.04 | favourable safety profile
CCCCCCCCCCCCCC[n+]1ccccc1.[Br-] [Compound 6e, 1-Tetradecylpyridin-1-ium bromide] | – | 16 µg/mL | 16 µg/mL | 64 µg/mL | 32 µg/mL | – | – | 10.46 ± 3.129% (****) | 12.93 ± 3.760% (****) | 4 µg/mL | 8 µg/mL | 79.90 | 2.65 | –
